Experimental data taken from patent US6673832B1, “Methods for identifying compounds for treating pain” (priority 1998, dated 2004).
Read-outs that look alike come from different tables or passages of the source. Square brackets hold non-standard residues; d marks the D form. Peptide text beside a SMILES is read from it.

How the values were obtained:
[1] = system: ET-1-induced hindpaw flinching; experiment: Blockade of ET-1-induced hindpaw flinching; assay type: in vivo, rat; conditions: for effect on ET-1 induced hindpaw flinching: antagonist 3 mM epineurial, 20, 10 and 0 min prior to ET-1 400 μM; for significance of difference from ET-1 alone in hindpaw flinching (FIG. 3): antagonist 3 mM, 20, 10 and 0 min prior to ET-1 400 μM
From the text: (§1) Surgical Procedures. Adult male Sprague Dawley rats (175-225 g) were anesthetized with an intermediate-onset, short-acting volatile anesthetic (Sevaflurane, Abbott Laboratories, North Chicago, Ill.). After shaving of the hair over the left or right flank and incision of the skin, blunt dissection was made through the biceps femoris, the sciatic nerve exposed by careful microdissection away from the surrounding connective tissue, and gently elevated by insertion of a small curved hemostat placed beneath it. Following drug administration, as described below, the biceps femoris was closed with a single silk suture, and the skin closed with surgical staples.
(§2) Drug administration. The following drugs were applied epineurially: 1) 40-800 μM endothelin-1 (ET-1) (synthetic, 98% pure peptide content, American Peptides Co., Sunnyvale, Calif.); 2) the selective endothelin-A receptor antagonist, BQ-123 (American Peptides Co.; Sunnyvale, Calif.) at 3 mM; 3) the selective endothelin-B receptor antagonist, BQ-788 (American Peptides Co.; Sunnyvale, Calif.) at 3 mM; and 400 μM epinephrine (American Regent Laboratories, Inc., Shirley, N.Y.).
(§3) All drugs were dissolved in phosphate buffered saline (PBS, pH=7.4), and applied in 40 μl volumes to the epineurial surface of the exposed sciatic nerve (n=10 rats/condition). The total time for each drug application was 3-4 min. BQ-123 and BQ-788 were applied in 3 stages: 20 min prior to, 10 min prior to and 30 sec before ET-1 application. PBS was administered to control animals. Excess drug or PBS solution was absorbed by cotton gauze placed at the edge of the exposed nerve.
Morphine was administered systemically immediately before anesthesia (10 mg/kg, ip). Naloxone was administered systemically 20 min after the completion of ET-1 application (2 mg/kg, ip).
(§4) Behavioral evaluation. […] Behavioral measurements were then performed with animals freely moving on a flat surface enclosed by an inverted large Plexiglas cage. The total number of ipsilateral and contralateral spontaneous hindpaw flinches (operationally defined as complete lifting of the hindpaw off the testing surface) were counted for consecutive 5 minute periods for a total 60 minute observation period. The total duration of hindpaw lifting and time spent exploring were also recorded.

[2] = system: sciatic nerve in rats with a chronic constriction injury; experiment: Leukocytic profiles in sciatic nerve sections after CCI; assay type: in vivo, rat
Experimental: (§5) CCI surgery. The sciatic nerve of a rat was exposed after blunt dissection of the biceps femoris. Four chromic gut ligatures (4-0) were placed around a […] section of sciatic nerve in the mid-thigh region. The ligatures were applied so that they constricted the diameter of the nerve just enough to impede circulation through the superficial vasculature (as visualized under an operating microscope at 40×). Sham-operated rats received an identical exposure of the left sciatic nerve without CCI. A coding system blinded the investigators to the nature of the surgery performed on individual rats.
Histology. To compare the extent and type of cellular inflammation around the peripheral nerve due to CCI between DEX- and saline-treated rats, the ligated sciatic nerve was processed for histological analysis. At 3, 5, 7, and 10 days post-CCI, animals were euthanized with 100 mg/kg intraperitoneal sodium pentobarbital, and then transcardially perfused first with 50 ml of cold 0.9% NaCl, 1 ml/g body weight of 4% paraformaldehyde in 0.01 M phosphate buffered saline, pH 7.4 (PBS). A 2-3 cm section of sciatic nerve, or a 1 cm section of L5 and L6 spinal nerves, which included material at the ligation site, as well as that just proximal and distal to ligation, was placed in 0.01 M PBS, 4% paraformaldehyde to post-fix for 2 hours. Tissue was then embedded in paraffin, cut in 10-30 μm sections on a vibratome, and placed on glass slides. Slides were deparaffinized and then hydrated in distilled water prior to staining in freshly filtered Harris' hematoxylin for 6-15 min. After washing in running tap water for 2-5 min, sections were differentiated in 1% acid alcohol, washed briefly in tap water, and then placed in weak ammonia water until sections are bright blue. The sections were then washed thoroughly in running tap water, transferred to 80% ethanol, and then counterstained in eosin-phloxine solution prior to dehydration and mounting with Permount.
Quantitation of leukocytes in nerve sections. To detect leukocytes in injured peripheral nerve, both cellular and […] were used. To be included in the leukocyte cell count, leukocytes had to 1) have a nucleus which was clearly visible and characteristic of an infiltrating macrophage (bean-shaped nucleus), neutrophil (polymorphic nucleus) or lymphocyte (dense nucleus that fills the cytoplasm); 2) have a “foamy” macrophage appearance typical of a myelin-ingesting phagocytes; and 3) be present within the endoneurial space. Cells present within vascular spaces or containing nuclei that could not be clearly differentiated from activated Schwann cells, fibroblasts or endothelial cells were not counted.

CCI rats = experiment: Thermal hyperalgesia (hindpaw withdrawal latency) after sciatic nerve CCI; assay type: in vivo, rat
Experimental: as §5
Dexamethasone inhibits CCI-induced pain sensitivity. […] Thermal hyperalgesia was defined as a reduction in the latency to hindpaw withdrawal during a thermal stimulus applied to the plantar surface. […] Presumably, chemotactic signals overwhelmed the effects of DEX by 10 days to account for differences from baseline and between hindpaws at this timepoint (FIG. 8B).

circulating leukocytes = conditions: for Mean number of leukocytes: cyclophosphamide 100 mg/kg
From the text: Complete blood counts were serially determined on all animals receiving treatments.

normal rats = conditions: cyclophosphamide treatment, FIGS. 11A and B
Experimental: For these experiments only, different groups of treated animals were tested (alternating fashion) on each test day to limit the amount of blood drawn.

rat sciatic nerve = experiment: Epineurial application of drug to rat sciatic nerve, spontaneous hindpaw flinching; assay type: in vivo
From the text: as §1, §2, §3
In experiments involving repeated administration of ET-1, animals were re-anesthetized 75-80 min after surgery (time point after which no further hindpaw flinching was observed, as described below), and 400 μM ET-1 was applied in the same volume, as described above. Behavioral evaluation was performed, as described below, for an additional 60 min.
as §4
Data Analysis. The peak frequency of hindpaw flinching, effects at 10 min post-drug administration, and area-under-the-curve (without approximation) from 0-60 min were all used to describe response-concentration functions.

E1A cells = experiment: Microfluorometry (Fura-2) of intracellular calcium in E1A cells; assay type: cell-based, rat
Experimental: Microfluorometry in E1A cells. E1A cells (retrovirally-transformed rat dorsal root ganglion cells) were grown as a monolayer on poly-L-lysine coated coverslips in Dulbecco's modified eagle media supplemented with 10% fetal bovine serum at 37° C. in a humified atmosphere (5% CO2−95% air). Cells were used 48-72 hours after plating, at a confluence of 75 to 90%. The concentration of intracellular calcium was determined by dual excitation microfluorometry, using the calcium sensitive dye Fura-2 (Grynkiewicz, et.al., J. Biol. Chem. 260: 3440-3450, 1985). E1A cells were washed once with D-PBS (with Ca^++) and then incubated for 30 min at room temperature in D-PBS (with Ca^++) containing 7.5 μM Fura-2/AM and 0.00125% (wt/vol) pluronic-DMSO. The cells were then washed twice in D-PBS (with Ca^++) and incubated for an additional 30 minutes to allow cleavage of the Fura-2/AM to the active Fura-2.
Experiments were conducted with the coverslips in a perfusion chamber of 0.4 ml, with a constant flow rate of 4 ml/min. Each coverslip was equilibrated in D-PBS for 2 min prior to beginning an experiment. […]
Microfluorometry was performed with an inverted epifluoroscence microscope connected to a light source which provided two alternating wavelengths (Photon Technology International Deltascan). […] Background fluorescence was subtracted from each trial.

[3] = naloxone 2 mg/kg ip, 20 min after ET-1

CCCC[C@@H](NC(=O)[C@@H](Cc1cn(C(=O)OC)c2ccccc12)NC(=O)[C@H](CC(C)(C)C)NC(=O)N1[C@H](C)CCC[C@@H]1C)C(=O)O [BQ-788]
effect on ET-1 induced hindpaw flinching [1]: reduced hindpaw flinching significantly only at the 40 and 45 min timepoints | significance of difference from ET-1 alone in hindpaw flinching (FIG. 3) [1]: significant at 45 and 50 min

CN1CC[C@]23c4c5ccc(O)c4O[C@H]2[C@@H](O)C=C[C@H]3[C@H]1C5 [morphine]
effect on flinching induced by ET-1 ([1]; morphine 10 mg/kg ip immediately before anesthesia, ET-1 400 μM): completely blocked

C[C@@H]1C[C@H]2[C@@H]3CCC4=CC(=O)C=C[C@]4(C)[C@@]3(F)[C@@H](O)C[C@]2(C)[C@@]1(O)C(=O)CO [DEX, Dexamethasone]
Number of leukocytic profiles in sciatic nerve ([2]; 3 days post-CCI, six high-power fields (0.238 mm^2), mean ± S.D.): 4.2 ± 0.92 | Number of leukocytic profiles in sciatic nerve ([2]; 5 days post-CCI, six high-power fields, n = 1): 12.8 | Number of leukocytic profiles in sciatic nerve ([2]; 7 days post-CCI, six high-power fields, mean ± S.D.): 23.3 ± 26.9 | Number of leukocytic profiles in sciatic nerve ([2]; 10 days post-CCI, six high-power fields, mean ± S.D.): 25.7 ± .9 | period post-CCI with differences from baseline and contralateral hindpaw eliminated (CCI rats; DEX 1.5 mg/kg i.p. daily): 3 to 7 days

CC(C)C[C@@H]1NC(=O)[C@@H](C(C)C)NC(=O)[C@@H]2CCCN2C(=O)[C@@H](CC(=O)O)NC(=O)[C@@H](Cc2c[nH]c3ccccc23)NC1=O [BQ-123] (cyclo(L[dW][dD]P[dV]))
effect on ET-1 induced hindpaw flinching [1]: completely blocked | significance of difference from ET-1 alone in hindpaw flinching (FIG. 3) [1]: significant at every time point after 5 min

C=CCN1CC[C@]23c4c5ccc(O)c4O[C@H]2C(=O)CC[C@@]3(O)[C@H]1C5 [Naloxone]
duration of reversal of the effect of morphine [1, 3]: approximately 10 min | reversal of the effect of morphine on ET-1-induced flinching [1, 3]: rapidly reversed the effect of morphine

O=P1(N(CCCl)CCCl)NCCCO1 (centres unmarked) [Cyclophosphamide, cyclophosphamide]
effect on circulating leukocyte numbers (circulating leukocytes; 100 mg/kg on alternate days×3 days, pre-operatively): markedly reduced | Mean number of leukocytes (circulating leukocytes; 1 day): 0.4 ± 0.1 10^3/ml | Mean number of leukocytes (circulating leukocytes; 3 days): 1.0 ± 0.3 10^3/ml | Mean number of leukocytes (circulating leukocytes; 5 days): 0.5 ± 0.4 10^3/ml | Mean number of leukocytes (circulating leukocytes; 8 days): 4.6 ± .6 10^3/ml | Mean number of leukocytes (circulating leukocytes; 10 days): 7.3 ± 1.8 10^3/ml | Mean number of leukocytes (circulating leukocytes; Baseline): 9.2 ± 0.7 10^3/ml | Total white blood cell counts (circulating leukocytes; CYCLO-treated CCI rats, normal rats approximately 9×10^3): < 1000 µL⁻¹ | effect on hyperalgesia response in CCI-treated rats (CCI rats; CYCLO 100 mg/kg alternate days×3 prior to CCI, until leukocyte counts returned toward normal 10 days post-surgery): blocked the hyperalgesia response | analgesic effect with respect to thermal pain stimulation in normal animals (normal rats): no analgesic effects

CNC[C@H](O)c1ccc(O)c(O)c1 [epinephrine]
hindpaw flinching after epinephrine applied to sciatic nerve (rat sciatic nerve; 400 μM, 60 min observation period): no evidence of hindpaw flinching

endothelin-1 [ET-1]
time of peak of flinching behavior and postural changes (rat sciatic nerve; 400 μM ET-1): ≤ 30 min | repetitive, spontaneous hindpaw flinching (rat sciatic nerve; 400 μM ET-1, 40 μl epineurial, 10-60 min post-administration, vs PBS): increased | effect at high concentration on hindpaw flinching (rat sciatic nerve; 800 μM): apparent inhibitory effect | concentration giving maximum frequency of hindpaw flinching (rat sciatic nerve; 40-800 μM tested): 400 µM | EC50 (rat sciatic nerve; 10 minutes post ET-1 administration, FIG. 4B, read-out: concentration of half-maximal effect on hindpaw flinching): 300 µM | hindpaw flinching and postural changes after application onto or into muscles surrounding sciatic nerve (rat sciatic nerve; same concentration of ET-1, muscle not nerve): neither increased hindpaw flinching nor postural changes | hindpaw flinching after second (repeat) treatment (rat sciatic nerve; second 400 μM ET-1, 15-20 min after first 60 min testing period): did not produce hindpaw flinching that was significantly different from controls | intracellular Ca++ level reached after ET-1 (E1A cells; 400 μl pulse of 13.5 μM ET-1, resting level 50-100 nM): ~500 nM | Fura-2 fluorescence during ET-1 administration (E1A cells; E1A cells, FIG. 7): large, rapid, and transient increase
